The results in this text go back to patent publication US20240342292A1, “Compounds for the Degradation of EGFR Kinase” (BeiGene Switzerland GmbH, priority 2021, published 2024).

The structures appear in SMILES notation.

One experiment addresses T1, L858R/T790M/C797S EGFR (Homo sapiens, UniProt P00533, C797S/L858R/T790M).
T1 construct: expressed in transfected cells; host or cells: H1975 clone #25 (lentiviral over-expression, endogenous EGFR knocked out by sgRNA)
The experiment is described as follows: EGFR degradation HTRF assay in H1975-clone #25 (LTC) cells. The note with it: 16h treatment; for DC50: H1975 # 25-LTC (L858R/T790M/C797S), HTRF; for Dmax: NCI-H1975, H1975 # 25-LTC (L858R/T790M/C797S), maximum percentage of degradation. The class given is cell-based. The source says:
(§1) H1975-clone #28(Del19/T790M/C797S, or abbr: DTC), H1975-clone #23(Del19/C797S, or abbr: DC), H1975-clone #25(L858R/T790M/C797S, or abbr: LTC) and H1975-clone #8 (L858R/C797S, or abbr: LC). EGFR-Del19:T790M/C797S, EGFR-Del19/C797S, EGFR-L858R/T790M/C797S and EGFR-L858R/C797S were stably expressed in H1975 cell lines by lentivirus-mediated over-expression, respectively. The EGFR over-expressed cells then underwent knockout, in which the EGFR targeting sgRNA was designed to only target the endogenous EGFR copies and preserve the exogenous EGFR copies. Followed by the knockout, the edited H1975 cells were seeded in 96 well plates at the concentration of […], cultured for about 2 weeks to allow single clones formation. The formed clones were screened by DNA sequencing and whole exon sequencing analysis for the desired edition. H1975-clone #28, H1975-clone #23, H1975-clone #25 and H1975-clone #8 were finally confirmed as homozygous Del19/T790M/C797S EGFR, Dell9/C797S EGFR, L858R/T790M/C797S EGFR and L858R/C797S EGFR clones, respectively.
(§2) H1975-#25, H1975-#28, H1975-#23 and H1975-#8 cells are treated with compounds diluted in 0.2% DMSO cell culture medium on day 2, incubate for 16h, 37° C., 5% CO2. the final concentration of compounds in all assay is start with 10 uM, 5-fold dilution, total 8 doses were included.
(§3) After 16h treatment, add HTRF lysis buffer to each well; seal the plate and incubate 1 hour at room temperature on a plate shaker; Once the cells are lysed, 16 μL of cell lysate are transferred to a PE 384-well HTRF detection plate; 4 μL of pre-mixed HTRF antibodies are added to each well; Cover the plate with a plate sealer, spin 1000 rpm for 1 min, Incubate overnight at room temperature; Read on BMG PheraStar with HTRF protocol (337 nm-665 nm-620 nm).
(§4) The IC50 (DC50) value of a compound can be obtained by fitting the following equation
(§5) Y=Bottom+(TOP−Bottom)/(1+((IC50/X)^hillslope))
(§6) Wherein, X and Y are known values, and IC50, Hillslope, Top and Bottom are the parameters obtained by fitting with software. Y is the inhibition percentage (calculated from the equation), X is the concentration of the compound: IC50 is the concentration of the compound when the 50% inhibition is reached. The smaller the IC50 value is, the stronger the inhibitory ability of the compound is. Vice versa, the higher the IC50 value is, the weaker the ability the inhibitory ability of the compound is: Hillslope represents the slope of the fitted curve, generally around 1*; Bottom represents the minimum value of the curve obtained by data fitting, which is generally 0%±20%; Top represents the maximum value of the curve obtained by data fitting, which is generally 100%±20%. The experimental data were fitted by calculating and analyzing with Dotmatics data analysis software.

For a further experiment, the system named is Del19/T790M/C797S EGFR. The experiment can be described thus: EGFR degradation HTRF assay in H1975-clone #28 (DTC) cells. Format: cell-based. The note with it: H1975 # 28 DTC (Del19/T790M/C797S), 16h treatment; for DC50: HTRF; for Dmax (%): maximum percentage of degradation.
Description: as §1, §2, §3, §4, §5, §6

T1 sequence (P00533 25-1210 T790M/C797S/L858R): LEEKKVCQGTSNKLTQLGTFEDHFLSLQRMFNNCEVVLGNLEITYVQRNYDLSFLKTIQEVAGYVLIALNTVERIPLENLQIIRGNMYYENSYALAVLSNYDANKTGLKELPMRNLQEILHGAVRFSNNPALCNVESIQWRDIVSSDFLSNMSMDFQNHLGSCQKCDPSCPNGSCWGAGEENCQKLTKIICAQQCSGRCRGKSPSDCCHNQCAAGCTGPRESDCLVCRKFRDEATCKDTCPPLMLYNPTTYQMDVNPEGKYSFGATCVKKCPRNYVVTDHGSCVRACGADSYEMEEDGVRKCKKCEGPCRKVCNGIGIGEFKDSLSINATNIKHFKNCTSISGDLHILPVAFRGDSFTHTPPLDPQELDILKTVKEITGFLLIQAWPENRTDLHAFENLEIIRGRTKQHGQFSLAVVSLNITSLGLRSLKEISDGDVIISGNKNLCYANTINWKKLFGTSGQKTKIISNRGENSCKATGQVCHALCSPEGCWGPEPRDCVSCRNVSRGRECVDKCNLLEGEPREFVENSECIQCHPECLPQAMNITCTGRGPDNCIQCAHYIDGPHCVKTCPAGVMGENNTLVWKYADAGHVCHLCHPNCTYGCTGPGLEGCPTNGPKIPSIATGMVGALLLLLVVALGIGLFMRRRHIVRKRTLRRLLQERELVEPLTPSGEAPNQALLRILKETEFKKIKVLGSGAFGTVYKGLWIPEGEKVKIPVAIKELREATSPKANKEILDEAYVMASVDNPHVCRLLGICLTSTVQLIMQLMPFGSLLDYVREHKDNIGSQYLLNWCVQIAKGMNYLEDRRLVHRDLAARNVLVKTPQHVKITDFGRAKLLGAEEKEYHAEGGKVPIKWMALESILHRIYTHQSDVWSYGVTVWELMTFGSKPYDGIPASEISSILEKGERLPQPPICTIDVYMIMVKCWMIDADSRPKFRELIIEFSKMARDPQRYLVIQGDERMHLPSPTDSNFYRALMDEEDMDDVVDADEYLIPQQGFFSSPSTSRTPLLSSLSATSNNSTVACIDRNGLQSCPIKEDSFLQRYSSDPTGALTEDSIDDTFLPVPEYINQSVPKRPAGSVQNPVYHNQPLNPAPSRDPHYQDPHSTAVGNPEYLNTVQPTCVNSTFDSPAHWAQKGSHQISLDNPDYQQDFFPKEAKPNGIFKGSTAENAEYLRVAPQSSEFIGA

The DC50 is the midpoint of the concentration-degradation curve. For orientation: Dmax means the largest share of the target that was removed. For `Cc1cc2cc(n1)-c1cnn(C)c1OCCC[C@@H](C)CN1/C(=N/C2=O)Nc2ccc(C(=O)N3CCN(CCCc4cc(F)c([C@H]5CCC(=O)NC5=O)c(F)c4)CC3)cc21` [Example 341, (R)-3-(2,6-difluoro-4-(3-(4-((R,E)-1^1,2^6,7-trimethyl-3-oxo-5^2,5^3-dihydro-1^1H,5^1H-11-oxa-4-aza-5(2,1)-benzo[d]imidazola-2(2,4)-pyridina-1(4,5)-pyrazolacycloundecaphane-5^6-carbonyl)piperazin-1-yl)propyl)phenyl)piperidine-2,6-dione], on L858R/T790M/C797S EGFR, the DC50 was 0.54 nM and the maximal degradation (Dmax) turned out to be 86.8%. In addition, in the experiment on Del19/T790M/C797S EGFR, the DC50 was 0.621 nM and the “Dmax (%)” value is given as 79.84%.
In the case of `Cc1cc2cc(n1)-c1cnn(C)c1OCCC[C@@H](C)CN1/C(=N/C2=O)Nc2ccc(CN3CCN(C(=O)[C@@H]4CCN(c5cc(F)c([C@H]6CCC(=O)NC6=O)c(F)c5)C4)C[C@H]3C)cc21` [Example 100, (R)-3-(2,6-difluoro-4-((R)-3-((R)-3-methyl-4-(((R,E)-1^1,2^6,7-trimethyl-3-oxo-5^2,5^3-dihydro-1^1H,5^1H -11-oxa-4-aza-5(2,1)-benzo[d]imidazola-2(2,4)-pyridina-(4,5)-pyrazolacycloundecaphane-5^6-yl)methyl)piperazine-1-carbonyl)pyrrolidin-1-yl)phenyl)piperidine-2,6-dione], on L858R/T790M/C797S EGFR, it took 1 nM to reach half-maximal degradation (DC50) and the Dmax came to 85.5%. In the experiment with Del19/T790M/C797S EGFR, the DC50 stood at 0.7 nM and the “Dmax (%)” value amounted to 72.8%.
Taken in the same sequence, the figures for `Cc1cc2cc(n1)-c1cnn(C)c1OCCC[C@@H](C)CN1/C(=N/C2=O)Nc2ccc(C(=O)N(C3CC3)C3CCN(CCc4cc(F)c([C@H]5CCC(=O)NC5=O)c(F)c4)CC3)cc21` [Example 239, (R,E)-N-cyclopropyl-N-(1-(4-((R)-2,6-dioxopiperidin-3-yl)-3,5-difluorophenethyl)piperidin-4-yl)-1^1, 2^6,7-trimethyl-3-oxo-5^2,5^3-dihydro-1^1H,5^1H-11-oxa-4-aza-5(2,1)-benzo[d]imidazola-2(2,4)-pyridina-1(4,5)-pyrazolacycloundecaphane-5^6-carboxamide] were 0.604 nM, 87.9%, 0.205 nM and 83.87%.
With `Cc1cc2cc(n1)-c1cnn(C)c1OCCC[C@@H](C)CN1/C(=N/C2=O)Nc2ccc(C(=O)N(C)[C@H]3CCN(CCNc4cc(F)c([C@H]5CCC(=O)NC5=O)c(F)c4)C[C@H]3F)cc21` [Example 351, (R,E)-N—((3R,4S)-1-(2-((4-((R)-2,6-dioxopiperidin-3-yl)-3,5-difluorophenyl)amino)ethyl)-3-fluoropiperidin-4-yl)-N,1^1,2^6,7-tetramethyl-3-oxo-5^2,5^3-dihydro-1^1H,5^1H-11-oxa-4-aza-5(2,1)-benzo[d]imidazola-2(2,4)-pyridina-1(4,5)-pyrazolacycloundecaphane-5^6-carboxamide], on L858R/T790M/C797S EGFR, the DC50 came out at 0.614 nM and the Dmax amounted to 91.7%. For the same compound, in the experiment on Del19/T790M/C797S EGFR, the DC50 stood at 0.561 nM and the “Dmax (%)” value is 83.91%.
For `Cc1cc2cc(n1)-c1cnn(C)c1OCCC[C@@H](C)CN1/C(=N/C2=O)Nc2ccc(N3CCN(CCNc4cc(F)c([C@H]5CCC(=O)NC5=O)c(F)c4)CC3)cc21` (single isomer, unassigned) [Example 368] the same measures were 0.546 nM, 88%, 0.623 nM and 80.06%.
Taken in the same sequence, the figures for `Cc1cc2cc(n1)-c1cnn(C)c1OCCC[C@@H](C)CN1/C(=N/C2=O)Nc2ccc(CC3CCN(C(=O)C4CN(c5cc(F)c([C@H]6CCC(=O)NC6=O)c(F)c5)C4)CC3)cc21` [Example 159, (R)-3-(2,6-difluoro-4-(3-(4-(((R,E)-1^1,2^6,7-trimethyl-3-oxo-5^2,5^3-dihydro-1^1H,5^1H-11-oxa-4-aza-5(2,1)-benzo[d]imidazola-2(2,4)-pyridina-1(4,5)-pyrazolacycloundecaphane-5^6-yl)methyl)piperidine-1-carbonyl)azetidin-1-yl)phenyl)piperidine-2,6-dione] were 1.48 nM, 79.9%, 1.77 nM and 79.77%.
Taken in the same sequence, the figures for `Cc1cc2cc(n1)-c1cnn(C)c1OCCC[C@@H](C)CN1/C(=N/C2=O)Nc2ccc(N3CCC(C(=O)N4CC(Nc5cc(F)c([C@H]6CCC(=O)NC6=O)c(F)c5)C4)CC3)cc21` [Example 404, (R)-3-(2,6-difluoro-4-((1-(1-((R,E)-1^1,2^6,7-trimethyl-3-oxo-5^2,5^3-dihydro-1^1H,5^1H-li-oxa-4-aza-5(2,1)-benzo[d]imidazola-2(2,4)-pyridina-1(4,5)-pyrazolacycloundecaphane-5^4-yl)piperidine-4-carbonyl)azetidin-3-yl)amino)phenyl)piperidine-2,6-dione] were 0.94 nM, 88.5%, 1.69 nM and 83.57%.
On L858R/T790M/C797S EGFR, `Cc1cc2cc(n1)-c1cnn(C)c1OCCC[C@@H](C)CN1/C(=N/C2=O)Nc2ccc(CN3CCN(C(=O)[C@@H]4CCN(c5cc(F)c([C@H]6CCC(=O)NC6=O)c(F)c5)C4)CC34COC4)cc21` [Example 199, (R)-3-(2,6-difluoro-4-((R)-3-(5-(((R,E)-1^1,2^6,7-trimethyl-3-oxo-5^2,5^3-dihydro-1^1H,5^1H-11-oxa-4-aza-5(2,1)-benzo[d]imidazola-2(2,4)-pyridina-1(4,5)-pyrazolacycloundecaphane-5^6-yl)methyl)-2-oxa-5,8-diazaspiro[3.5]nonane-8-carbonyl)pyrrolidin-1-yl)phenyl)piperidine-2,6-dione] displayed a DC50 of 0.638 nM and a Dmax of 76.5%. For the same compound, in the experiment on Del19/T790M/C797S EGFR, the DC50 was 0.752 nM and the “Dmax (%)” value was 73.3%.
Taken in the same sequence, the figures for `Cc1cc2cc(n1)-c1cnn(C)c1OCCC[C@@H](C)CN1/C(=N/C2=O)Nc2ccc(N3CCN([C@H]4C[C@H](Nc5cc(F)c([C@H]6CCC(=O)NC6=O)c(F)c5)C4)CC3)cc21` (single isomer, unassigned) [Example 444] were 2.1 nM, 89%, 1.3 nM and 82.11%.
Taken in the same sequence, the figures for `Cc1cc2cc(n1)-c1cnn(C)c1OCCC[C@@H](C)CN1/C(=N/C2=O)Nc2ccc(C(=O)N(C)[C@H]3CCN(CCc4cc(F)c([C@H]5CCC(=O)NC5=O)c(F)c4)CC3(F)F)cc21` [Example 251, (R,E)-N—((S)-1-(4-((R)-2,6-dioxopiperidin-3-yl)-3,5-difluorophenethyl)-3,3-difluoropiperidin-4-yl)-N,1^1,2^6,7-tetramethyl-3-oxo-5^2,5^3-dihydro-1^1H,5^1H-11-oxa-4-aza-5(2,1)-benzo[d]imidazola-2(2,4)-pyridina-1(4,5)-pyrazolacycloundecaphane-5^6-carboxamide] were 0.888 nM, 85.5%, 0.611 nM and 80.86%.
Taken in the same sequence, the figures for `Cc1cc2cc(n1)-c1cnn(C)c1OCCC[C@@H](C)CN1/C(=N/C2=O)Nc2ccc(N3CCN(C4CCN(c5cc(F)c([C@H]6CCC(=O)NC6=O)c(F)c5)CC4)[C@@H](CO)C3)cc21` [Example 421, (R)-3-(2,6-difluoro-4-(4-((R)-2-(hydroxymethyl)-4-((R,E)-1^1,2^6,7-trimethyl-3-oxo-5^2,5^3-dihydro-1^1H,5^1H-11-oxa-4-aza-5(2,1)-benzo[d]imidazola-2(2,4)-pyridina-1(4,5)-pyrazolacycloundecaphane-5^6-yl)piperazin-1-yl)piperidin-1-yl)phenyl)piperidine-2,6-dione] were 0.604 nM, 87.5%, 0.639 nM and 84.08%.
